Here are results for two compounds from US20120116069A1, “GLUCOSE METABOLISM-IMPROVING AGENT AND GLUCOSE METABOLISM-IMPROVING COMPOSITION” (LION CORPORATION, priority 2009, published 2012).

In test [1] the test system is human subjects having a fasting blood sugar level of 120 mg/dL to 140 mg/dL. Put plainly: Test of PT/PD intake for human: fasting and postprandial blood sugar level, blood indices. Type of test: in vivo. The following applies: for fasting blood sugar level: 8 mg capsule once a day for eight weeks; for fasting blood sugar level / postprandial blood sugar level: compared with the placebo-given group; for postprandial blood sugar level / 1-5AG / Glycoalbumin / HbA1c / Insulin (fasting): 8 mg capsule once a day; for postprandial blood sugar level: 30 min, 60 min and 120 min, starch food load. As for the experimental part: Panax notoginseng powder (10 g) was suspended in 100 mL of 30% by mass aqueous solution of ethanol, and then saponins were extracted under heating for 2 hours. The obtained extract was hydrolyzed in the presence of hydrochloric acid to prepare an aglycon-containing product. The aglycon-containing product was treated with a silica gel column (SILICA GEL 60N, product of KANTO CHEMICAL CO., LTD.) to isolate and prepare panaxatriol (PT) having a purity of 99% by mass or higher.
Next, capsules each containing 8 mg of the thus-prepared panaxatriol (PT) were prepared. These capsules were given continuously for eight weeks to human subjects of a group (hereinafter may be referred to as “PT-given group”) to measure the fasting blood sugar level and a change in postprandial blood sugar level which was measured after giving to the human subjects predetermined meals such as a meal containing an excessive amount of starch food (e.g., a rice ball formed of 200 g of cooked rice (350 kcal)). Also, the blood indices measured were the blood HbA1c level, the blood glycoalbumin level, the blood 1·5AG level and the fasting blood insulin level.
The blood sugar levels were measured with a simplified blood sugar meter FREESTYLE (product of NIPRO Co.). The fasting blood sugar level and the fasting insulin level were measured at 9 a.m. The postprandial blood sugar level was measured every 30 min for 120 min from 9 a.m. to 11:30 a.m. after the predetermined starch food had been given to the subjects. The HbA1c, glycoalbumin and 1·5AG levels were measured by a routine method of a medical facility using the blood sampled at 9 a.m.
The 24 subjects were randomly divided to two groups and assigned to a placebo-given group, serving as a control, and a PT-given group. Also, the results were statistically analyzed using the Student's t-test comparing the placebo-given group and the PT-given group. The time at which the capsules were given was set to 10 a.m. every day so that the capsules were not given at the same time as a meal.
Panax notoginseng powder (10 g) was suspended in 100 mL of 30% by mass aqueous solution of ethanol, and then saponins were extracted under heating for 2 hours. The obtained extract was hydrolyzed in the presence of hydrochloric acid to prepare an aglycon-containing product. The aglycon-containing product was treated with a silica gel column (SILICA GEL 60N, product of KANTO CHEMICAL CO., LTD.) to isolate and prepare panaxadiol (PD) having a purity of 99% by mass or higher.
Next, capsules each containing 8 mg of the thus-prepared panaxadiol (PD) were prepared. These capsules were given continuously for eight weeks to human subjects of a group (hereinafter may be referred to as “PD-given group”) to measure the fasting blood sugar level and a change in postprandial blood sugar level which was measured after giving to the human subjects predetermined meals such as a meal containing an excessive amount of starch food (e.g., a rice ball formed of 200 g of cooked rice (350 kcal)). Also, the blood indices measured were the blood HbA1c level, the blood glycoalbumin level, the blood 1·5AG level and the fasting blood insulin level.
The 24 subjects were randomly divided to two groups and assigned to a placebo-given group, serving as a control, and a PD-given group. Also, the results were statistically analyzed using the Student's t-test comparing the placebo-given group and the PD-given group. The time at which the capsules were given was set to 10 a.m. every day so that the capsules were not given at the same time as the meal.

The test system of test [2] is model mice of hyperglycemia (KKAy mouse). Put plainly: Amount of 13CO2 excreted in exhaled gas after oral glucose-U-13C6. The settings on record: 0.1% by mass in high fat diet for one week, four hours after oral glucose-U-13C6, versus control group. Type of test: in vivo. The method, then:
Twenty-four model mice of hyperglycemia (KKAy mouse (product of CLEA Japan, Inc.), male, four weeks old) were preliminarily bred for one week in individual cages under the following conditions: temperature: room temperature (22° C.±1° C.), humidity: 50%±5%, and light-dark cycle: 12 hours. Eight grams per day of CE-2 (product of CLEA Japan, Inc.) was given to each mouse as feed during the preliminary breeding, while water was given ad libitum. […] Thereafter, an aqueous solution of glucose and glucose-U-^13C6 was orally administered to each mouse at a concentration calculated from the following: [2.0 g D-glucose (product of NACALAI TESQUE, INC.)+72 mg D-glucose-U-^13C6 (99%) (product of Cambridge Isotope Lab.)/kg-body weight]. Then, the cumulative amount of ^13CO2 excreted was measured for four hours. The cumulative amount of ^13CO2 excreted is expressed as AUC (increment in the amount of ^13CO2 excreted). Here, the AUC (increment in the amount of ^13CO2 excreted) refers to an area corresponding to the increment between the amount of ^13CO2^3 excreted prior to administration of glucose-U-^13C6 (baseline) to the amount of ^13CO2 excreted measured four hours after administration of glucose-U-^13C6 in a graph where a change in the amount of ^13CO2 excreted is plotted against time after administration of glucose-U-^13C6.

With `CC1(C)CCC[C@](C)([C@H]2CC[C@]3(C)[C@@H]2[C@H](O)C[C@@H]2[C@@]4(C)CC[C@H](O)C(C)(C)[C@@H]4CC[C@]23C)O1` [PD, panaxadiol], in test [1], the “fasting blood sugar level” value is “decreased significantly” and the “postprandial blood sugar level” value is given as “decrease significantly”. Besides, in test [1] (Week 0), the 1-5AG is 24.4 ± 7.8 µg/mL, the Glycoalbumin was determined as 14.8 ± 1.4 % by mass, the HbA1c was 5.1 ± 0.1 % by mass and the “Insulin (fasting)” value is recorded as 5.6 ± 1.4 μU/mL. In test [1] (Week 2), the 1-5AG was 24.1 ± 7.2 µg/mL, the Glycoalbumin stood at 14.5 ± 1.2 % by mass, the HbA1c is recorded as 5.1 ± 0.2 % by mass and the “Insulin (fasting)” value is given as 5.9 ± 2.2 μU/mL. Besides, in test [1] (Week 4), the 1-5AG stood at 25.0 ± 7.3 µg/mL, the Glycoalbumin was 14.3 ± 1.3 % by mass, the HbA1c worked out at 5.1 ± 0.1 % by mass and the “Insulin (fasting)” value worked out at 5.9 ± 3.8 μU/mL. Further, in test [1] (Week 8), the 1-5AG stood at 25.7 ± 6.4 µg/mL, the Glycoalbumin amounted to 14.2 ± 1.1 % by mass, the HbA1c came to 4.8 ± 0.1 % by mass and the “Insulin (fasting)” value is reported as 6.1 ± 2.6 μU/mL. Moreover, in test [2], the “amount of 13CO2 excreted” value is on record as “significantly increased”.

Turning to `CC1(C)CCC[C@](C)([C@H]2CC[C@]3(C)[C@@H]2[C@H](O)C[C@@H]2[C@@]4(C)CC[C@H](O)C(C)(C)[C@@H]4[C@@H](O)C[C@]23C)O1` [PT, panaxatriol], in test [1], the “fasting blood sugar level” value was “decreased significantly” and the “postprandial blood sugar level” value is “decrease significantly”. Besides, in test [1] (Week 0), the 1-5AG was 24.3 ± 7.7 µg/mL, the Glycoalbumin is given as 14.7 ± 1.3 % by mass, the HbA1c was determined as 5.1 ± 0.1 % by mass and the “Insulin (fasting)” value is given as 5.5 ± 1.5 μU/mL. In addition, in test [1] (Week 2), the 1-5AG was determined as 24.2 ± 7.1 µg/mL, the Glycoalbumin was 14.5 ± 1.3 % by mass, the HbA1c stood at 5.1 ± 0.2 % by mass and the “Insulin (fasting)” value is reported as 6.1 ± 2.1 μU/mL. Further, in test [1] (Week 4), the 1-5AG was 25.0 ± 7.5 µg/mL, the Glycoalbumin was determined as 14.3 ± 1.3 % by mass, the HbA1c is reported as 5.1 ± 0.1 % by mass and the “Insulin (fasting)” value is 5.8 ± 4.2 μU/mL. Also, in test [1] (Week 8), the 1-5AG stood at 25.6 ± 6.3 µg/mL, the Glycoalbumin is recorded as 14.2 ± 1.3 % by mass, the HbA1c came to 4.8 ± 0.2 % by mass and the “Insulin (fasting)” value is recorded as 6.2 ± 2.4 μU/mL. In test [2], the “amount of 13CO2 excreted” value is reported as “significantly increased”.
